Reference: patent US5225532A, “Symmetrical bipeptides containing a polyalkylene glycol residue, method of preparation and use in the assay of proteases” (Serbio, priority 1990, dated 1993)
Where a SMILES comes first, the peptide text is derived from it. [ ]: non-standard residue; d: D form. The star is where a group is joined. Cha = N[C@@H](CC1CCCCC1)C(=O)O; dChg = N[C@@H](C(=O)O)C1CCCCC1; pNA = O=[N+]([O-])c1ccc(N*)cc1; dAbu = CC[C@@H](N)C(=O)O; Abu = CC[C@H](N)C(=O)O; Ms = CS(=O)(=O)*

Assays:
Assay type in all cases: biochemical
[1] = molecular target: Factor Xa (Homo sapiens, UniProt P00742); assay: Enzymic hydrolysis of chromogenic substrate by Factor Xa (ΔOD/min); conditions: equimolar doses, activity of reference CP 1 taken as 100%
Procedure: (§1) The tripeptide compounds of formula I and their addition salts are useful in the determination of the enzymes involved in hemostasis. In particular, they constitute specific substrates for Factor Xa, plasmin or thrombin. The recommended method of determining these enzymes comprises bringing a given amount of a tripeptide of formula I or of one of its addition salts (at a concentration of the order of 10 mg/ml) into contact, in an appropriate aqueous liquid medium such as a buffered isotonic solution, with a test sample (diluted if appropriate) which may contain the target enzyme, for at least 0.5 h at a temperature of between RT and 40° C., especially 37° C.
(§2) The activity of the tripeptides according to the invention towards enzymes involved in hemostasis was determined by conventional methods such as those described in EP-A-0 280 160 (see page 14), the hydrolysis rate being assessed by the variation in optical density with time (ΔOD/min). The results obtained have been collated in Table II below, where the activity of reference products (CP 1 to CP 3) is specified as being equal to 100% for the sake of convenience.
(§3) Table II below summarizes the results of the comparative tests which were carried out at equimolar doses with the products of the invention and with standard substances, whose activity was taken as being equal to 100%.

[2] = molecular target: Thrombin (Homo sapiens, UniProt P00734); assay: Enzymic hydrolysis of chromogenic substrate by thrombin (ΔOD/min); conditions: for Activity towards Thrombin (hydrolysis rate relative to reference): equimolar doses, activity of reference CP 2 taken as 100%, hydrolysis rate as ΔOD/min
Procedure: as §1, §2, §3

[3] = molecular target: Plasmin (Homo sapiens, UniProt P00747); assay: Enzymic hydrolysis of chromogenic substrate by plasmin (ΔOD/min); conditions: equimolar doses, activity of reference CP 3 taken as 100%
Procedure: as §1, §2, §3

Factor Xa, sequence (P00742 235-488 limits assumed): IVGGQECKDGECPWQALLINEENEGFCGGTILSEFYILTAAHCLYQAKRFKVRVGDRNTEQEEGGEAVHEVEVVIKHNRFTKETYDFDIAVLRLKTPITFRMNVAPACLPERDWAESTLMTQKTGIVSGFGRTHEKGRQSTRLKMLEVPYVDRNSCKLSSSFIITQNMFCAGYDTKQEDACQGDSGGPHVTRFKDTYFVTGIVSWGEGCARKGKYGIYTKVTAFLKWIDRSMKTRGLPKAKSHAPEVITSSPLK
Factor Xa, sequence (P00742 41-179 partner limits assumed): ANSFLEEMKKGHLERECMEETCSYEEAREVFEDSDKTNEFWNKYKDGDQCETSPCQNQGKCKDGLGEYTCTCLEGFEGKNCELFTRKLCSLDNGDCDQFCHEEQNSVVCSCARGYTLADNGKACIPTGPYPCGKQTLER
Plasmin, sequence (P00747 581-810 limits assumed, species assumed): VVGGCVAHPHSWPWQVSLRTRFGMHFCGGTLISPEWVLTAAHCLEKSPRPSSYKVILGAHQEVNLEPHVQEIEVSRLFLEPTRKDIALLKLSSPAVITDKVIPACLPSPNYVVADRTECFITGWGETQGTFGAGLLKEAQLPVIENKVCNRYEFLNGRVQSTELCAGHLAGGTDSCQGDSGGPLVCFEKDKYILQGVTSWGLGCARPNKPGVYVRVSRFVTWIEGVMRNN
Plasmin, sequence (P00747 97-580 partner limits assumed, species assumed): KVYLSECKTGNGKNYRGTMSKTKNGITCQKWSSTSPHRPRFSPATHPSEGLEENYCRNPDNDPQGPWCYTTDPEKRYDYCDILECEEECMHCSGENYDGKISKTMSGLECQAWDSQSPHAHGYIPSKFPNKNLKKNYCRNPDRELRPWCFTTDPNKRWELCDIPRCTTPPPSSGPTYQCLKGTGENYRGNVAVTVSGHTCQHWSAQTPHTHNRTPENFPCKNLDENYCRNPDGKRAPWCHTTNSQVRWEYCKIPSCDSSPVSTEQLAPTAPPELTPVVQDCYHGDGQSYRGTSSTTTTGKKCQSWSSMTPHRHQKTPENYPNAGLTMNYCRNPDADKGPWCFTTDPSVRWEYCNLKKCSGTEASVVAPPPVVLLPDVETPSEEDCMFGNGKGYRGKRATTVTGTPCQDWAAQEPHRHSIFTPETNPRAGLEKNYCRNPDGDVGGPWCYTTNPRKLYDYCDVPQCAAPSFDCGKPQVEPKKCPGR

Compound | Activity towards Xa (hydrolysis rate relative to reference) [1] [%] | Activity towards Thrombin (hydrolysis rate relative to reference) [2] [%] | Activity towards Plasmin (hydrolysis rate relative to reference) [3] [%] | Sensitivity towards thrombin compared with reference substrate ([2]; in words, versus CP 1 as printed)
CC(C)C[C@@H](NS(C)(=O)=O)C(=O)NCC(=O)N[C@@H](CCCNC(=N)N)C(=O)Nc1ccc([N+](=O)[O-])cc1 [CP 1, MeSO2D-Leu--GlyL-Arg-pNA.AcOH, reference compound] (Ms-[dL]-Gly-Arg-pNA) | 100 | 18 | 30 | 
CC[C@H](NC(=O)[C@H](N)C1CCCCC1)C(=O)N[C@@H](CCCNC(=N)N)C(=O)Nc1ccc([N+](=O)[O-])cc1 [CP 2, HD-CHG-L-Abu-L-Arg-pNA.2AcOH, reference compound] (H-[dChg]-[Abu]-Arg-pNA) | 14 | 100 | 77 | 
CC[C@@H](N)C(=O)N[C@@H](CC1CCCCC1)C(=O)N[C@@H](CCCNC(=N)N)C(=O)Nc1ccc([N+](=O)[O-])cc1 [CP 3, HD-Abu-L-CHA-L-Arg-pNA.2AcOH, reference compound] (H-[dAbu]-[Cha]-Arg-pNA) | 14 | 10 | 100 | 
PEG200 (Gly-L-Pro-L-Arg-pNA)2.2AcOH [Ex. 2] | 6 | 34 | 130 | 
PEG600 (CO-Gly-L-Pro-L-Arg-pNA)2 [Ex. 3] | 10 | 50 | 122 | 

Further lines, with some results ahead:

Activity towards Xa (hydrolysis rate relative to reference) [1] [%] | Activity towards Thrombin (hydrolysis rate relative to reference) [2] [%] | Activity towards Plasmin (hydrolysis rate relative to reference) [3] [%] | Compound | Sensitivity towards thrombin compared with reference substrate ([2]; in words, versus CP 1 as printed)
45 | 21 | 112 | PEG200 (CO-D-CHA-Gly-L-Arg-pNA)2 [Ex. 7] | 
11 | 45 | 289 | PEG200 (D-Glu(OBzl)-L-Pro-L-Arg-pNA)2.2AcOH [Ex. 4] | 
105 | 23 | 188 | PEG200 (D-Leu-Gly-L-Arg-pNA)2.2AcOH [Ex. 6] | 
20 | 110 | 15 | PEG200 (D-Nle-L-CHA-L-Arg-pNA)2.2AcOH [Ex. 5] | more sensitive than the reference substrate CP 1
60 | 25 | 150 | PEG300 (D-Leu-Gly-L-Arg-pNA)2.2AcOH [Ex. 8] | 
74 | 34 | 165 | PEG400 (D-Leu-Gly-L-Arg-pNA)2.2AcOH [Ex. 9] | 
